Tested on: Plasmodium falciparum
Assay: GSK_TCMDC: Inhibition of Plasmodium falciparum 3D7 in whole erythrocytes, using parasite LDH activity as an index of growth.
Assay type: functional, organism-based
Details: Plasmodium falciparum, 3D7

CCN1CCC(N(Cc2ccc(-c3ccc(C(F)(F)F)cc3)o2)C(=O)Cn2c(CCc3cccc(F)c3F)nc(=O)c3ccccc32)CC1
XC50: 1140 nM

Cc1ccc(Oc2ccc(NC(=O)CNc3ccccc3N3CCCC3=O)cc2)cc1
XC50: 366 nM

COCCCNc1sc(S(=O)(=O)c2ccccc2)nc1S(=O)(=O)c1ccc(Cl)cc1
XC50: 877 nM

NC1=NC(c2ccccc2)N(c2ccc(Cl)c(Cl)c2)C(N)=N1 (stereo unspecified)
XC50: 14.6 nM

O=C(/C=C/c1cccc(Cl)c1)Nc1ccc2nc(CN3CCCC3)ccc2c1
XC50: 255 nM

CN1CCCC(CN2CCN(Cc3cccc(-c4ccc(-c5nc6ccccc6[nH]5)cc4)c3)CC2)C1 (stereo unspecified)
XC50: 157 nM

CCOC(=O)c1ccc(NC(=O)Nc2ccc(-c3ccc(-c4nc5ccccc5[nH]4)cc3)cc2)cc1
XC50: 22.3 nM

N#Cc1cccc(Nc2nccc(NCC(O)c3ccccc3C(F)(F)F)n2)c1 (stereo unspecified)
XC50: 827 nM

O=C1c2ccc([N+](=O)[O-])cc2C(=O)N1c1ccc2[nH]ncc2c1
XC50: 1150 nM

O=C1C(c2ccccc2)=C(Nc2ccc(Cl)cc2)c2ccccc21
XC50: 613 nM

COc1cccc(-c2cc(-c3ccc(NC(=O)c4ccccc4)cc3)c3c(N)ncnc3n2)c1
XC50: 587 nM

CCOC(=O)c1ccc(NC(=O)Nc2cccc(-c3cccc(-c4nc5cccc(C)c5[nH]4)c3)c2)cc1
XC50: 106 nM

Cc1cc(N[C@@H](CC(C)C)C(=O)NCc2cccc(F)c2)nc(NCC2CCCCC2)n1
XC50: 834 nM

Cc1cnc(Nc2ccccc2)nc1NCCC(=O)Nc1ccccc1
XC50: 1160 nM

Cc1cc(NCCc2ccccc2)nc(NC(=N)Nc2cccc([N+](=O)[O-])c2)n1
XC50: 140 nM

O=C(Nc1ccc(CN2CCCCC2)cc1)c1ccc(COc2ccc([N+](=O)[O-])cc2)o1
XC50: 996 nM

COc1c(C2CCN(CCN3CCC(NC(=O)c4ccc(-c5ccc(C(F)(F)F)cc5)cc4)CC3)CC2)ccc2c1CCCC2
XC50: 1360 nM

O=C(Nc1cccc(CN2CCCN(Cc3cccc(O)c3)CC2)c1)c1ccc(Cl)c(Cl)c1
XC50: 664 nM

CCc1cc(C(=O)c2cccc(C)c2)c(NC(=O)CN2CCN(C(=O)c3ccco3)CC2)s1
XC50: 451 nM

COCCNCc1cccc(-c2ccc(CN(C(=O)NC3CCCCC3)C3CCN(Cc4ccccc4)CC3)cc2)c1
XC50: 759 nM

CN1CCC(NCc2ccc(-c3cccc(S(=O)(=O)NCCc4ccccn4)c3)cc2)CC1
XC50: 993 nM

c1ccc(-c2ccc(-c3nc4ccccc4[nH]3)cc2)cc1
XC50: 809 nM

COCC(=O)N(Cc1ccccc1-c1ccc(CNCCc2ccccc2)cc1)C1CCN(Cc2ccccc2)CC1
XC50: 895 nM

CCc1nc(N)nc(N)c1CCCOc1ccccc1Cl
XC50: 105 nM

O=C(c1ccco1)N1CCN(c2ccc([N+](=O)[O-])c(NC3CC3)c2)CC1
XC50: 747 nM

COc1ccc(CCNCCCCCCNCCc2ccc(-c3ccccc3)cc2)cc1OC
XC50: 958 nM

Cc1cccc(C(=O)NCCCN2CCC(NC(=O)/C=C/c3ccc(Cl)c(Cl)c3)CC2)c1
XC50: 1700 nM

Clc1nc2ccccn2c1C=Cc1ccc2ccccc2n1
XC50: 267 nM

O=C(CSc1nccn1C1CCCCC1)Nc1cc(C(F)(F)F)ccc1Cl
XC50: 402 nM

Brc1ccc(Nc2nc(NCc3ccccc3)c3ccccc3n2)cc1
XC50: 337 nM

CCN(CC)CCOc1cc2c(cc1Br)-c1cc(Br)c(OCCN(CC)CC)cc1C2=NO
XC50: 1090 nM

FC(F)(F)c1ccc2[nH]c(-c3ccc(-c4cccc(CNCCN5CCNCC5)c4)s3)nc2c1
XC50: 1040 nM

CCCCC1(c2ccc(F)cc2)NC(=O)N(CC(=O)c2cc(C)n(Cc3ccco3)c2C)C1=O (stereo unspecified)
XC50: 983 nM

CC(=O)c1ccc(N2CCN(CCC3(c4ccc(Cl)c(Cl)c4)COCN(C(=O)c4ccccc4)C3)CC2)cc1 (stereo unspecified)
XC50: 925 nM

O=C(Nc1ccc2c(c1)CCN2C1CCN(Cc2cccc(F)c2F)C1)c1ccco1 (stereo unspecified)
XC50: 787 nM

Oc1ccc2[nH]c(-c3ccc(OC(F)(F)F)cc3)nc2c1CNC1CCCC1
XC50: 1750 nM

Clc1ccc2c(NN=Cc3ccco3)ccnc2c1
XC50: 1100 nM

COc1ccc(CN(C)CCCc2ccc(NC(=O)Cc3ccc4nc(-c5ccccc5)ccc4c3)cc2)cc1OC
XC50: 534 nM

Cc1cccc2nc(-c3ccc(-c4cccc(CNCCCNS(C)(=O)=O)c4)cc3)[nH]c12
XC50: 1220 nM

O=C1CCCN1CCCNCc1ccc(-c2ccc(-c3nc4cc(F)ccc4[nH]3)s2)cc1
XC50: 896 nM

CC[C@@]1(O)C(=O)OCc2c1cc1n(c2=O)Cc2c-1nc1cc3c(cc1c2CN1CCN(C)CC1)OCCO3
XC50: 446 nM

COc1ccc(CCN2CCC(CN(C)Cc3cnn(-c4ccccc4)c3)CC2)cc1
XC50: 1160 nM

O=C(/C=C/c1ccc(Cl)c(Cl)c1)NCCCCCN1CCCC(C(=O)Nc2cccc(Cl)c2)C1 (stereo unspecified)
XC50: 895 nM

CCn1c(-c2nonc2N)nc2c(-c3cccc(Cl)c3)ncc(OCCCNCc3cnc(C)nc3N)c21
XC50: 1010 nM

Cc1nc(NC(=N)N)nc2ccc(C(C)(C)C)cc12
XC50: 747 nM

O=C(Nc1cc(F)cc(F)c1)N1CCOC(CCN2CCC3(CCc4ccccc43)CC2)(c2ccc(Cl)c(Cl)c2)C1 (stereo unspecified)
XC50: 275 nM

O=C(COC(=O)c1cccc(S(=O)(=O)N2CCc3ccccc32)c1)NNC(=O)c1cccs1
XC50: 1250 nM

CCCn1c(O)nnc1SCC(=O)Nc1cc(C(F)(F)F)ccc1Cl
XC50: 222 nM

O=C(NCc1cccc(F)c1)Nc1cccc(-c2cccc(-c3nc4cc(C(F)(F)F)ccc4[nH]3)c2)c1
XC50: 330 nM

NCC1CCCN1Cc1ccc(-c2cccc(-c3nc4cc(C(F)(F)F)ccc4[nH]3)c2)cc1 (stereo unspecified)
XC50: 833 nM

Cc1csc(-c2nc(NCc3cccnc3)ncc2-c2ccsc2)n1
XC50: 1190 nM

O=C(Nc1cccc(F)c1)N(Cc1ccc(-c2cccc(CN3CCNCC3)c2)cc1)C1CCN(Cc2ccccc2)CC1
XC50: 763 nM

Cc1cccc(-c2ccc(CNC3CCN(CC4Cn5c(=O)ccc6ccc(F)c4c65)CC3)cn2)c1 (stereo unspecified)
XC50: 1530 nM

COc1cccc(C=Cc2nc(=O)c3ccccc3o2)c1OC
XC50: 64.4 nM

Cc1cccc2nc(-c3ccc(-c4cccc(NC(=O)c5cccc(C(N)=O)c5)c4)cc3)[nH]c12
XC50: 1130 nM

CCCCCCNc1c2ccccc2nc2ccccc12
XC50: 949 nM

CC(C)(C)c1ccc(CNC(=O)c2cc(CNC3CCNCC3)ccc2O)cc1
XC50: 710 nM

CCN(CCCN1CCCC1)c1cc(C)nc(Nc2ccc(Cl)cc2)n1
XC50: 344 nM

Fc1ccc(Nc2ccnc3cc(-c4ccc(CN5CCOCC5)o4)ccc23)c(Cl)c1
XC50: 756 nM

CC(C)CCN(Cc1cncn1Cc1cccc(C(F)(F)F)c1)C(=O)c1ccccc1C#N
XC50: 614 nM

O=C(NCCCCN1CCC(c2ccc3c(c2OCCO)CCCC3)CC1)c1ccc(-c2ccc(C(F)(F)F)cc2)cc1
XC50: 855 nM

N#Cc1ccc2c(c1)CCN(CCC1CCC(NC(=O)c3cc4cccc([N+](=O)[O-])c4[nH]3)CC1)C2 (stereo unspecified)
XC50: 684 nM

CC(C)(C)c1ccc(C(=O)Nc2ccc3nc4c(c(N)c3c2)CCCC4)cc1
XC50: 175 nM

COc1ccc(-c2cnc3ccc(NCc4ccc(F)cc4)nn23)cc1OC
XC50: 834 nM

COc1ccc(OC)c(-c2cccc(-c3cccc(NC(=O)c4ccc([N+](=O)[O-])o4)c3)n2)c1
XC50: 371 nM

Oc1ccc(CCNc2nc(NCCCOc3cccc(CN4CCCCC4)c3Cl)nc(N3CCNCC3)n2)cc1
XC50: 1370 nM

O=C(N[C@@H](Cc1ccccc1)C(=O)O)c1cc(-c2ccc(F)cc2)no1.O=C(N[C@@H](Cc1ccccc1)C(=O)O)c1conc1-c1ccc(F)cc1
XC50: 802 nM

CCCN(CCC)CCCN(CCCN(CCC)CCC)c1cc(C)nc(Nc2ccc3cc(Br)ccc3c2)n1
XC50: 210 nM

CCc1c(C)c(C#N)c2nc3ccccc3n2c1NCc1ccco1
XC50: 698 nM

CC(C)CNCc1cccc(-c2cccc(CN(C(=O)c3cccs3)C3CCN(Cc4ccccc4)CC3)c2)c1
XC50: 896 nM

CN(C)c1cccc2c1nc(-c1ccc3c(c1)CCO3)n2CCNCc1ccccc1
XC50: 734 nM

N#Cc1cccc(CN2CCCN(Cc3cccc(C(=O)Nc4ccc(Cl)cc4)c3)CC2)c1
XC50: 1180 nM

COc1ccc(C2CC(=O)C3=C(C2)NC(C)=C(C(=O)OC(C)C)C3c2c(F)cccc2Cl)cc1OC (stereo unspecified)
XC50: 824 nM

CO/C(=C\C=C\c1cc2cc(Cl)c(Cl)cc2[nH]1)C(=O)NCCCN1CCN(Cc2ccccc2)CC1
XC50: 912 nM

O=C1C2C(c3ccc(Cl)c(Cl)c3)N3CC(OCc4ccccc4)CC3(C(=O)O)C2C(=O)N1c1ccc(Br)cc1 (stereo unspecified)
XC50: 336 nM

COc1cccc(C23NC(=Nc4nc5ccccc5[nH]4)NC2(c2cccc(OC)c2)NC(=Nc2nc4ccccc4[nH]2)N3)c1 (stereo unspecified)
XC50: 157 nM

Cc1cc(N2CCN(CC3CCN(C)CC3)CC2)nc(Nc2ccc(Br)cc2)n1
XC50: 442 nM

CC(=O)Nc1ccc(CN2CCC(NC(=O)c3ccc(-c4cccc(Cl)c4)s3)CC2)cc1
XC50: 792 nM

CCCn1c(Sc2ccc(C#N)c([N+](=O)[O-])c2)nnc1-c1ccc(Cl)cc1
XC50: 537 nM

CCOc1ccc2[nH]c(C)cc(=NN=Cc3cccnc3)c2c1
XC50: 155 nM

N#Cc1ccc(N2CCN(Cc3cccc(-c4cccc(-c5nc6cc(F)ccc6[nH]5)c4)c3)CC2)nc1
XC50: 959 nM

Cc1ccc(C)c(Cn2c(N3CCC(C(=O)NCc4cccs4)CC3)nc3ccccc32)c1
XC50: 938 nM

O=C(Nc1ccc(-c2ccc(CN3CCNCC3)cc2)cc1)c1cccc(Cl)c1
XC50: 894 nM

COc1ccc2[nH]ccc(=NN=Cc3ccccc3)c2c1
XC50: 110 nM

CCCCC/C=C/C(=O)NC1CCC(CN2CCC(c3c[nH]c4ccccc34)CC2)CC1 (stereo unspecified)
XC50: 982 nM

O=C(/C=C/c1c[nH]c2ccccc12)NCCCCCN1CCC(c2c[nH]c3ccccc23)CC1
XC50: 932 nM

CCOC(=O)c1ccc(OCc2ccc(-c3ccccc3)cc2)cc1
XC50: 813 nM

CN(C)CCCOc1ccc(-c2csc(NC(=N)NCc3ccccc3)n2)cc1
XC50: 278 nM

C[C@@H](Oc1cc(-n2cnc3cc(SCCN4CCN(C)CC4)ccc32)sc1C(N)=O)c1ccccc1Cl
XC50: 507 nM

O=C(N[C@@H](Cc1cc(F)cc(F)c1)[C@H](O)CNCc1cccc(C(F)(F)F)c1)c1cc(C2CCCC2)cc(N2CCCC2=O)c1
XC50: 803 nM

c1ccc(-c2ccc(-c3csc(Nc4ccncc4)n3)cc2)cc1
XC50: 1010 nM

O=C(Nc1ccc(OC2CCN(Cc3ccsc3)CC2)c(Cl)c1)c1cccs1
XC50: 600 nM

COc1ccc2[nH]c(C(=O)Nc3ccc4[nH]c(-c5ccccc5)nc4c3)cc2c1
XC50: 834 nM

COc1ccccc1N1CCN(CCCCNC(=O)c2ccc(NC(=O)c3ccc(C(F)(F)F)cc3)cc2)CC1
XC50: 304 nM

COC(=O)C(NC(=O)NC1CCN(c2ccnc(Nc3ccc(F)cc3)n2)C1)c1ccccc1 (stereo unspecified)
XC50: 1050 nM

c1cc(CNCCc2ccncc2)cc(-c2ccc(-c3nc4ccccc4[nH]3)cc2)c1
XC50: 146 nM

From ChEMBL document CHEMBL1157539, “Thousands of chemical starting points for antimalarial lead identification” (Nature, 2010)
